In patent publication US20090239841A1, “Diaryl Ureas as CB1 Antagonists” (priority 2004, published 2009):

Target: T1, hCB1 (Homo sapiens, UniProt P21554)
T1 construct: made in house; host or cells: Sf9 insect cells (baculovirus), P2 membranes
Assay: Agonist-induced GTP binding (GTPγ35S) assay at CB1, Example 8
Type: biochemical
Conditions: not given
Outline: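 Antagonism read as inhibition of 1 nM CP55,940-stimulated GTPγ35S ([…]) binding, compounds at 10^−10 to 10^−5 M. Baculovirus-infected Sf9 membranes bearing hCB1 plus G-protein subunits, 60 min room-temperature incubation with 5 μM GDP. Filtration and scintillation counting; data as percent over basal.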

T1 sequence (P21554 whole entry): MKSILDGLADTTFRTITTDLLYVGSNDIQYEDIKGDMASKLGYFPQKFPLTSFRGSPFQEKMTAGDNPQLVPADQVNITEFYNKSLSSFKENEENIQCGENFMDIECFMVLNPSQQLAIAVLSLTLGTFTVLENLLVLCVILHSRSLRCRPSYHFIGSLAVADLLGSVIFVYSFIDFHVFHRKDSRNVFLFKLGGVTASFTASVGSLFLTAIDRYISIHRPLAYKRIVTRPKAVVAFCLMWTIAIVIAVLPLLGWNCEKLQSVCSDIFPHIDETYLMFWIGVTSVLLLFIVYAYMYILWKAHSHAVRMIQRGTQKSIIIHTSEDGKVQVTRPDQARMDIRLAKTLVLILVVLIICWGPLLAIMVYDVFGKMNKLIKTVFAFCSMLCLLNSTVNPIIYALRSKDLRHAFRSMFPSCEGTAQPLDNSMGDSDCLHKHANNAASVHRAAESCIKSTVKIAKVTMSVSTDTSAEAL

Structure (SMILES)	IC50
O=C(Nc1ccc(OC(F)F)cc1)Nc1ccnc(Cl)c1 [Compound 628, 1-(2-chloropyridin-4-yl)-3-[4-(difluoromethoxy)phenyl]urea]	< 2000 nM

Same assay, conditions: IC50 at CB1, determined as described in Example 8; read-out: IC50

IC50	Structure (SMILES)
< 2000 nM	O=C(Nc1ccc(OC(F)F)cc1)Nc1ccccc1Br [Compound 605, 1-(2-bromophenyl)-3-[4-(difluoromethoxy)phenyl]urea]
< 2000 nM	Cc1ccc(NC(=O)Nc2ccc(OC(F)F)cc2)cc1F [Compound 606, 1-[4-(difluoromethoxy)phenyl]-3-(3-fluoro-4-methylphenyl)urea]
< 2000 nM	Cc1ccc(NC(=O)Nc2ccc(OC(F)(F)F)cc2)cc1F [Compound 607, 1-(3-fluoro-4-methylphenyl)-3-[4-(trifluoromethoxy)phenyl]urea]
< 2000 nM	Cc1cc(NC(=O)Nc2ccc(OC(F)F)cc2)ccc1F [Compound 608, 1-[4-(difluoromethoxy)phenyl]-3-(4-fluoro-3-methylphenyl)urea]
< 2000 nM	O=C(Nc1ccc(OC(F)F)cc1)Nc1ccc(F)c(F)c1 [Compound 609, 1-[4-(difluoromethoxy)phenyl]-3-(3,4-difluorophenyl)urea]
< 2000 nM	O=C(Nc1ccc(OC(F)(F)F)cc1)Nc1ccc2c(c1)CCC2 [Compound 610, 1-(2,3-dihydro-1H-inden-5-yl)-3-[4-(trifluoromethoxy)phenyl]urea]
< 2000 nM	Cc1ccc(NC(=O)Nc2ccc(OC(F)F)cc2)cc1Cl [Compound 611, 1-(3-chloro-4-methylphenyl)-3-[4-(difluoromethoxy)phenyl]urea]
< 2000 nM	Cc1cc(NC(=O)Nc2ccc(OC(F)F)cc2)ccc1Cl [Compound 612, 1-(4-chloro-3-methylphenyl)-3-[4-(difluoromethoxy)phenyl]urea]
< 2000 nM	COc1cccc(NC(=O)Nc2ccc(C)c(F)c2)c1 [Compound 614, 1-(3-fluoro-4-methylphenyl)-3-(3-methoxyphenyl)urea]
< 2000 nM	COc1ccc(NC(=O)Nc2ccc(C)c(F)c2)cc1 [Compound 615, 1-(3-fluoro-4-methylphenyl)-3-(4-methoxyphenyl)urea]
< 2000 nM	CCOc1ccc(NC(=O)Nc2ccc(C)c(F)c2)cc1 [Compound 616, 1-(4-ethoxyphenyl)-3-(3-fluoro-4-methylphenyl)urea]
< 2000 nM	CCOc1ccc(NC(=O)Nc2ccc(F)c(C)c2)cc1 [Compound 617, 1-(4-ethoxyphenyl)-3-(4-fluoro-3-methylphenyl)urea]
< 2000 nM	CCOc1ccc(NC(=O)Nc2ccc(F)c(F)c2)cc1 [Compound 619, 1-(3,4-difluorophenyl)-3-(4-ethoxyphenyl)urea]
< 2000 nM	COc1ccc(NC(=O)Nc2ccc3c(c2)CCC3)cc1 [Compound 620, 1-(2,3-dihydro-1H-inden-5-yl)-3-(4-methoxyphenyl)urea]
< 2000 nM	COc1cccc(NC(=O)Nc2ccc(C)c(Cl)c2)c1 [Compound 621, 1-(3-chloro-4-methylphenyl)-3-(3-methoxyphenyl)urea]
< 2000 nM	COc1ccc(NC(=O)Nc2ccc(C)c(Cl)c2)cc1 [Compound 622, 1-(3-chloro-4-methylphenyl)-3-(4-methoxyphenyl)urea]
< 2000 nM	CCOc1ccc(NC(=O)Nc2ccc(Cl)c(C)c2)cc1 [Compound 623, 1-(4-chloro-3-methylphenyl)-3-(4-ethoxyphenyl)urea]
< 2000 nM	CCOc1ccc(NC(=O)Nc2ccc(Cl)c(Cl)c2)cc1 [Compound 624, 1-(3,4-dichlorophenyl)-3-(4-ethoxyphenyl)urea]
< 2000 nM	CCOc1ccc(NC(=O)Nc2ccc(Cl)c(C(F)(F)F)c2)cc1 [Compound 625, 1-[4-chloro-3-(trifluoromethyl)phenyl]-3-(4-ethoxyphenyl)urea]
< 2000 nM	Cc1ccc(NC(=O)Nc2ccc(C(C)C)cc2)cc1F [Compound 626, 1-(3-fluoro-4-methylphenyl)-3-(4-isopropylphenyl)urea]
< 2000 nM	O=C(Nc1ccc(OC(F)F)cc1)Nc1cnccn1 [Compound 627, 1-[4-(difluoromethoxy)phenyl]-3-pyrazin-2-ylurea]
< 2000 nM	CCOc1ccc(NC(=O)Nc2ccc(Cl)nc2)cc1 [Compound 629, 1-(6-chloropyridin-3-yl)-3-(4-ethoxyphenyl)urea]
< 2000 nM	CC(C)c1ccc(NC(=O)Nc2ccc(Cl)nc2)cc1 [Compound 630, 1-(6-chloropyridin-3-yl)-3-(4-isopropylphenyl)urea]
< 2000 nM	O=C(Nc1ccc(OC(F)F)cc1)Nc1ccccn1 [Compound 631, 1-[4-(difluoromethoxy)phenyl]-3-pyridin-2-ylurea]
< 2000 nM	Cc1cccnc1NC(=O)Nc1ccc(OC(F)F)cc1 [Compound 632, 1-[4-(difluoromethoxy)phenyl]-3-(3-methylpyridin-2-yl)urea]
< 2000 nM	Cc1cccc(NC(=O)Nc2ccc(OC(F)F)cc2)n1 [Compound 633, 1-[4-(difluoromethoxy)phenyl]-3-(6-methylpyridin-2-yl)urea]
< 2000 nM	O=C(Nc1ccc(OC(F)F)cc1)Nc1ccc(Cl)cn1 [Compound 634, 1-(5-chloropyridin-2-yl)-3-[4-(difluoromethoxy)phenyl]urea]

IC50	Structure (SMILES)
< 2000 nM	CCc1ccc(NC(=O)Nc2ccc(C#N)cn2)cc1 [Compound 636, 1-(5-cyanopyridin-2-yl)-3-(4-ethylphenyl)urea]
< 2000 nM	CC(=O)c1ccc(NC(=O)Nc2ccc(Cl)nc2)cc1 [Compound 637, 1-(4-acetylphenyl)-3-(6-chloropyridin-3-yl)urea]
< 2000 nM	CCc1ccc(NC(=O)Nc2ccccn2)cc1 [Compound 638, 1-(4-ethylphenyl)-3-pyridin-2-ylurea]
< 2000 nM	CCc1ccc(NC(=O)Nc2ncccc2C)cc1 [Compound 639, 1-(4-ethylphenyl)-3-(3-methylpyridin-2-yl)urea]
< 2000 nM	CCc1ccc(NC(=O)Nc2cc(C)ccn2)cc1 [Compound 640, 1-(4-ethylphenyl)-3-(4-methylpyridin-2-yl)urea]
< 2000 nM	CCc1ccc(NC(=O)Nc2ccc(C)cn2)cc1 [Compound 641, 1-(4-ethylphenyl)-3-(5-methylpyridin-2-yl)urea]
< 2000 nM	CCc1ccc(NC(=O)Nc2cc(OC)ncn2)cc1 [Compound 642, 1-(4-ethylphenyl)-3-(6-methoxypyrimidin-4-yl)urea]
< 2000 nM	CCOC(=O)c1cccc(NC(=O)Nc2ccc(C)cc2)c1 [Compound 643, ethyl 3-({[(4-methylphenyl)amino]carbonyl}amino)benzoate]
< 2000 nM	CCOC(=O)c1cccc(NC(=O)Nc2ccc(F)cc2)c1 [Compound 644, ethyl 3-({[(4-fluorophenyl)amino]carbonyl}amino)benzoate]
< 2000 nM	CCc1ccc(NC(=O)Nc2cccc(C(=O)OC)c2)cc1 [Compound 645, methyl 3-({[(4-ethylphenyl)amino]carbonyl}amino)benzoate]
< 2000 nM	CCOC(=O)c1cccc(NC(=O)Nc2ccc(CC)cc2)c1 [Compound 646, ethyl 3-({[(4-ethylphenyl)amino]carbonyl}amino)benzoate]
< 2000 nM	COC(=O)c1cccc(NC(=O)Nc2ccc(Cl)cc2)c1 [Compound 647, methyl 3-({[(4-chlorophenyl)amino]carbonyl}amino)benzoate]
< 2000 nM	CCOC(=O)c1cccc(NC(=O)Nc2ccc(Cl)cc2)c1 [Compound 648, ethyl 3-({[(4-chlorophenyl)amino]carbonyl}amino)benzoate]
< 2000 nM	CCOC(=O)c1cccc(NC(=O)Nc2ccc(C(C)C)cc2)c1 [Compound 649, ethyl 3-({[(4-isopropylphenyl)amino]carbonyl}amino)benzoate]
< 2000 nM	CCCc1ccc(NC(=O)Nc2cccc(C(=O)OC)c2)cc1 [Compound 650, methyl 3-({[(4-propylphenyl)amino]carbonyl}amino)benzoate]
< 2000 nM	CCCc1ccc(NC(=O)Nc2ccc(C(=O)OC)cc2)cc1 [Compound 651, methyl 4-({[(4-propylphenyl)amino]carbonyl}amino)benzoate]
< 2000 nM	CCCc1ccc(NC(=O)Nc2cccc(C(=O)OCC)c2)cc1 [Compound 652, ethyl 3-({[(4-propylphenyl)amino]carbonyl}amino)benzoate]
< 2000 nM	CCCc1ccc(NC(=O)Nc2ccc(C(=O)OCC)cc2)cc1 [Compound 653, ethyl 4-({[(4-propylphenyl)amino]carbonyl}amino)benzoate]
< 2000 nM	CCCc1ccc(NC(=O)Nc2ccc(C)c(C)c2)cc1 [Compound 654, 1-(3,4-dimethylphenyl)-3-(4-propylphenyl)urea]
< 2000 nM	CCCc1ccc(NC(=O)Nc2ccc(C)c(F)c2)cc1 [Compound 655, 1-(3-fluoro-4-methylphenyl)-3-(4-propylphenyl)urea]
< 2000 nM	CCCc1ccc(NC(=O)Nc2ccc(F)c(C)c2)cc1 [Compound 656, 1-(4-fluoro-3-methylphenyl)-3-(4-propylphenyl)urea]
< 2000 nM	CCc1ccc(NC(=O)Nc2cc(F)cc(F)c2)cc1 [Compound 657, 1-(3,5-difluorophenyl)-3-(4-ethylphenyl)urea]
< 2000 nM	CCCc1ccc(NC(=O)Nc2cc(C)cc(C)c2)cc1 [Compound 658, 1-(3,5-dimethylphenyl)-3-(4-propylphenyl)urea]
< 2000 nM	CCOc1cccc(NC(=O)Nc2cccc(C(=O)OC)c2)c1 [Compound 659, methyl 3-({[(3-ethoxyphenyl)amino]carbonyl}amino)benzoate]
< 2000 nM	CCOc1cccc(NC(=O)Nc2ccc(C(=O)OC)cc2)c1 [Compound 660, methyl 4-({[(3-ethoxyphenyl)amino]carbonyl}amino)benzoate]
< 2000 nM	CCOC(=O)c1cccc(NC(=O)Nc2cccc(OCC)c2)c1 [Compound 661, ethyl 3-({[(3-ethoxyphenyl)amino]carbonyl}amino)benzoate]
